We go through 28 compounds from patent US10537558B2 (Bantam Pharmaceutical, LLC, priority 2015, dated 2020).

Usually EC50 stands for the concentration giving half of the maximal effect.

The test system of the assay is BJAB cells. The experiment in a line: BJAB cell proliferation (Cell Titer Glo). It is filed as cell-based. Particulars: Homo sapiens, read-out: EC50. The essentials: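 BJAB cells exposed to serially diluted compounds (0.1% DMSO final) for about 72 h at 37 °C. Proliferation read by Cell Titer Glo luminescence as percent of untreated controls; EC50 from non-linear regression of dose-response data.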
Background: In ATP-based viability assays light output follows the ATP content of the culture.
In the case of `Cc1nn(-c2nc(-c3ccc(Cl)c(Cl)c3)c(SC(C)C)s2)c(C(=O)O)c1-c1cnccn1` [Compound 79, 1-(4-(3,4-dichlorophenyl)-5-(isopropylthio)thiazol-2-yl)-3-methyl-4-(pyrazin-2-yl)-1H-pyrazole-5-carboxylic Acid], the EC50 lay in the range of 10 to 25 µM.

As to `Cc1cc(C#N)cc(-c2c(C)nn(-c3nc(-c4ccc(Cl)c(Cl)c4)c(SC(C)C)s3)c2C(=O)O)c1` [Compound 80, 4-(3-cyano-5-methylphenyl)-1-(4-(3,4-dichlorophenyl)-5-(isopropylthio)thiazol-2-yl)-3-methyl-1H-pyrazole-5-carboxylic Acid], the EC50 is 1 to 5 µM.

Consider `Cc1nn(-c2nc(-c3ccc(Cl)c(Cl)c3)c(SC(C)C)s2)c(C(=O)Nc2nnn[nH]2)c1-c1cc(C(F)(F)F)cc(C(F)(F)F)c1` [Compound 81, 4-(3,5-bis(trifluoromethyl)phenyl)-1-(4-(3,4-dichlorophenyl)-5-(isopropylthio)thiazol-2-yl)-3-methyl-N-(1H-tetrazol-5-yl)-1H-pyrazole-5-carboxamide], for which the EC50 is over 40 µM.

In the case of `Cc1nnc(-c2c(C)nn(-c3nc(-c4ccc(Cl)c(Cl)c4)c(SC(C)C)s3)c2C(=O)O)s1` [Compound 82, 1-(4-(3,4-dichlorophenyl)-5-(isopropylthio)thiazol-2-yl)-3-methyl-4-(5-methyl-1,3,4-thiadiazol-2-yl)-1H-pyrazole-5-carboxylic acid], the EC50 was over 40 µM.

With `COc1cc(C#N)cc(-c2c(C)nn(-c3nc(-c4ccc(Cl)c(Cl)c4)c(SC(C)C)s3)c2C(=O)O)c1` [Compound 83, 4-(3-cyano-5-methoxyphenyl)-1-(4-(3,4-dichlorophenyl)-5-(isopropylthio)thiazol-2-yl)-3-methyl-1H-pyrazole-5-carboxylic acid], the EC50 fell in the range of 5 to 10 µM.

For the compound `Cc1nn(-c2nc(-c3ccc(Cl)c(Cl)c3)c(SC(C)C)s2)c(C(=O)O)c1-c1cc(C#N)cc(C(F)(F)F)c1` [Compound 84, 4-(3-cyano-5-(trifluoromethyl)phenyl)-1-(4-(3,4-dichlorophenyl)-5-(isopropylthio)thiazol-2-yl)-3-methyl-1H-pyrazole-5-carboxylic Acid], the EC50 is 1 to 5 µM.

In the case of `COCc1cccc(-c2c(C)nn(-c3nc(-c4ccc(Cl)c(Cl)c4)c(SC(C)C)s3)c2C(=O)O)c1` [Compound 85, 1-(4-(3,4-dichlorophenyl)-5-(isopropylthio)thiazol-2-yl)-4-(3-(methoxymethyl)phenyl)-3-methyl-1H-pyrazole-5-carboxylic acid], the EC50 was 5 to 10 µM.

Regarding `Cc1nn(-c2nc(-c3ccc(Cl)c(Cl)c3)c(SC(C)C)s2)c(C(=O)O)c1-c1c(Cc2ccccc2)noc1C` [Compound 86, 4-(3-benzyl-5-methylisoxazol-4-yl)-1-(4-(3,4-dichlorophenyl)-5-(isopropylthio)thiazol-2-yl)-3-methyl-1H-pyrazole-5-carboxylic Acid], the EC50 lay within 1 to 5 µM.

With `Cc1nn(-c2nc(-c3ccc(Cl)c(Cl)c3)c(SC(C)C)s2)c(C(=O)O)c1-c1cccc(CN(C)C)c1` [Compound 87, 1-(4-(3,4-dichlorophenyl)-5-(isopropylthio)thiazol-2-yl)-4-(3-((dimethylamino)methyl)phenyl)-3-methyl-1H-pyrazole-5-carboxylic acid], the EC50 is over 25 µM.

In the case of `Cc1nn(-c2nc(-c3ccc(Cl)c(Cl)c3)c(SC(C)C)s2)c(CO)c1-c1ccccc1` [Compound 88, (1-(4-(3,4-dichlorophenyl)-5-(isopropylthio)thiazol-2-yl)-3-methyl-4-phenyl-1H-pyrazol-5-yl)MeOH], the EC50 was over 25 µM.

In the case of `Cc1nn(-c2nc(-c3ccc(Cl)c(Cl)c3)c(SC(C)C)s2)c(C(=O)O)c1-c1ccc2c(c1)OCO2` [Compound 89, 4-(benzo[d][1,3]dioxol-5-yl)-1-(4-(3,4-dichlorophenyl)-5-(isopropylthio)thiazol-2-yl)-3-methyl-1H-pyrazole-5-carboxylic Acid], the EC50 lay within 5 to 10 µM.

Consider `COc1ccnc(-c2c(C)nn(-c3nc(-c4ccc(Cl)c(Cl)c4)c(SC(C)C)s3)c2C(=O)O)n1` [Compound 90, 1-(4-(3,4-dichlorophenyl)-5-(isopropylthio)thiazol-2-yl)-4-(4-methoxypyrimidin-2-yl)-3-methyl-1H-pyrazole-5-carboxylic acid], for which the EC50 was over 25 µM.

For the compound `Cc1nn(-c2nc(-c3ccc(Cl)c(Cl)c3)c(SC(C)C)s2)c(C(=O)O)c1-c1cnsc1` [Compound 91, 1-(4-(3,4-dichlorophenyl)-5-(isopropylthio)thiazol-2-yl)-4-(isothiazol-4-yl)-3-methyl-1H-pyrazole-5-carboxylic acid], the EC50 was in the range of 5 to 10 µM.

In the case of `Cc1cc(-c2c(C)nn(-c3nc(-c4ccc(Cl)c(Cl)c4)c(SC(C)C)s3)c2C(=O)O)sn1` [Compound 92, 1-(4-(3,4-dichlorophenyl)-5-(isopropylthio)thiazol-2-yl)-3-methyl-4-(3-methylisothiazol-5-yl)-1H-pyrazole-5-carboxylic Acid], the EC50 lay within 1 to 5 µM.

As for `Cc1nn(-c2nc(-c3ccc(Cl)c(Cl)c3)c(SC(C)C)s2)c(C(=O)O)c1-c1ccn(C)c(=O)c1` [Compound 93, 1-(4-(3,4-dichlorophenyl)-5-(isopropylthio)thiazol-2-yl)-3-methyl-4-(1-methyl-2-oxo-1,2-dihydropyridin-4-yl)-1H-pyrazole-5-carboxylic acid], the EC50 is over 25 µM.

In the case of `Cc1nn(-c2nc(-c3ccc(Cl)c(Cl)c3)c(SC(C)C)s2)c(C(=O)O)c1-c1cc(C)c(=O)n(C)c1` [Compound 94, 1-(4-(3,4-dichlorophenyl)-5-(isopropylthio)thiazol-2-yl)-4-(1,5-dimethyl-6-oxo-1,6-dihydropyridin-3-yl)-3-methyl-1H-pyrazole-5-carboxylic Acid], the EC50 is over 25 µM.

In the case of `Cc1cc(F)cc(-c2c(C)nn(-c3nc(-c4ccc(Cl)c(Cl)c4)c(SC(C)C)s3)c2C(=O)O)c1` [Compound 95, 1-(4-(3,4-dichlorophenyl)-5-(isopropylthio)thiazol-2-yl)-4-(3-fluoro-5-methylphenyl)-3-methyl-1H-pyrazole-5-carboxylic Acid], the EC50 was in the range of 1 to 5 µM.

Turning to `Cc1cc(O)cc(-c2c(C)nn(-c3nc(-c4ccc(Cl)c(Cl)c4)c(SC(C)C)s3)c2C(=O)O)c1` [Compound 96, 1-(4-(3,4-dichlorophenyl)-5-(isopropylthio)thiazol-2-yl)-4-(3-hydroxy-5-methylphenyl)-3-methyl-1H-pyrazole-5-carboxylic acid], the EC50 was over 25 µM.

For the compound `Cc1cc(OC(C)C)cc(-c2c(C)nn(-c3nc(-c4ccc(Cl)c(Cl)c4)c(SC(C)C)s3)c2C(=O)O)c1` [Compound 97, 1-(4-(3,4-dichlorophenyl)-5-(isopropylthio)thiazol-2-yl)-4-(3-isopropoxy-5-methylphenyl)-3-methyl-1H-pyrazole-5-carboxylic Acid], the EC50 lay within 1 to 5 µM.

Turning to `Cc1cc(OC2COC2)cc(-c2c(C)nn(-c3nc(-c4ccc(Cl)c(Cl)c4)c(SC(C)C)s3)c2C(=O)O)c1` [Compound 98, 1-(4-(3,4-dichlorophenyl)-5-(isopropylthio)thiazol-2-yl)-3-methyl-4-(3-methyl-5-(oxetan-3-yloxy)phenyl)-1H-pyrazole-5-carboxylic Acid], the EC50 was in the range of 1 to 5 µM.

On to `Cc1cc(-c2c(C)nn(-c3nc(-c4ccc(Cl)c(Cl)c4)c(SC(C)C)s3)c2C(=O)O)cc(N(C)C)c1` [Compound 99, 1-(4-(3,4-dichlorophenyl)-5-(isopropylthio)thiazol-2-yl)-4-(3-(dimethylamino)-5-methylphenyl)-3-methyl-1H-pyrazole-5-carboxylic acid], for which the EC50 fell in the range of 5 to 10 µM.

Consider `Cc1cc(-c2c(C)nn(-c3nc(-c4ccc(Cl)c(Cl)c4)c(SC(C)C)s3)c2C(=O)O)cc(-n2ccnc2)c1` [Compound 100, 4-(3-(1H-imidazol-1-yl)-5-methylphenyl)-1-(4-(3,4-dichlorophenyl)-5-(isopropylthio)thiazol-2-yl)-3-methyl-1H-pyrazole-5-carboxylic Acid], for which the EC50 lay in the range of 1 to 5 µM.

Consider `Cc1cc(-c2c(C)nn(-c3nc(-c4ccc(Cl)c(Cl)c4)c(SC(C)C)s3)c2C(=O)O)cc(N2CCC2)n1` [Compound 101, 4-(2-(azetidin-1-yl)-6-methylpyridin-4-yl)-1-(4-(3,4-dichlorophenyl)-5-(isopropylthio)thiazol-2-yl)-3-methyl-1H-pyrazole-5-carboxylic acid], for which the EC50 lay within 1 to 5 µM.

Take `Cc1cc(-c2c(C)nn(-c3nc(-c4ccc(Cl)c(Cl)c4)c(SC(C)C)s3)c2C(=O)O)cc(N2CCOCC2)n1` [Compound 102, 1-(4-(3,4-dichlorophenyl)-5-(isopropylthio)thiazol-2-yl)-3-methyl-4-(2-methyl-6-morpholinopyridin-4-yl)-1H-pyrazole-5-carboxylic Acid]: the EC50 was 5 to 10 µM.

Take `COc1cccc(-c2nc(-n3nc(C)c(Cc4ccccc4[N+](=O)[O-])c3C(=O)O)sc2SC(C)C)c1` [Compound 103, 1-(5-(isopropylthio)-4-(3-methoxyphenyl)thiazol-2-yl)-3-methyl-4-(2-nitrobenzyl)-1H-pyrazole-5-carboxylic Acid]: the EC50 is over 80 µM.

As for `Cc1nn(-c2nc(-c3ccc(Cl)c(Cl)c3)c(SCCC(C)C)s2)c(C(=O)O)c1Cc1ccccc1[N+](=O)[O-]` [Compound 104, 1-(4-(3,4-dichlorophenyl)-5-(isopentylthio)thiazol-2-yl)-3-methyl-4-(2-nitrobenzyl)-1H-pyrazole-5-carboxylic acid], the EC50 is 25 to 50 µM.

Consider `COc1cccc(-c2nc(-n3nc(C)c(Cc4ccccc4NS(C)(=O)=O)c3C(=O)O)sc2SC(C)C)c1` [Compound 105, 1-(5-(isopropylthio)-4-(3-methoxyphenyl)thiazol-2-yl)-3-methyl-4-(2-(methylsulfonamido)benzyl)-1H-pyrazole-5-carboxylic acid], for which the EC50 was over 80 µM.

For the compound `CCC(C)Sc1sc(-n2nc(C)c(Cc3ccccc3[N+](=O)[O-])c2C(=O)O)nc1-c1ccc(Cl)c(Cl)c1` (stereo not shown) [Compound 106, 1-(5-(sec-butylthio)-4-(3,4-dichlorophenyl)thiazol-2-yl)-3-methyl-4-(2-nitrobenzyl)-1H-pyrazole-5-carboxylic acid], the EC50 was in the range of 10 to 25 µM.
